Reference: US20050215604A1, “Combination therapies with epothilones and carboplatin” (Kosan Biosciences, Inc., priority 2004, published 2005)

Key:
[1] = tested on: human NSCLC cell lines A549, H23, H226, H358, H460, and H522; experiment: MTS cell viability assay across the NSCLC panel, single agents and constant-ratio combination; assay type: cell-based; details: single agent, 1 pM to 10 μM, 3 days; carboplatin judged at 10,000 nM
Method: (§1) The human NSCLC (non-small cell lung cancer) cell lines A549, H23, H226, H358, H460, and H522 were seeded in 96 well plates (5000 cells/well); after overnight incubation, the cells were treated with epothilone D or carboplatin alone or epothilone D and carboplatin in combination. Once the IC50 value of each drug was obtained, the combined drug treatment was designed at constant ratios of the two drugs and the treatment schedule varied: either epothilone D or carboplatin was administered first with the second drug added 24 hours later. Cell viability was assayed by the MTS assay. […] Cells were treated with epothilone D or carboplatin at varying concentrations, ranging from 1 pM to 10 μM, for 3 days. Cell viability was determined using the using the MTS assay (Promega). IC50 is defined as the concentration of drug required to inhibit cell growth by 50%.

[2] = tested on: human lung cancer xenograft SK-MES; experiment: Human lung cancer xenograft in nude mice; assay type: in vivo; details: ip, epothilone D twice a day for 7 days (6 to 14 mg/kg/day), carboplatin daily for 5 days (10 to 40 mg/kg/day), dose dependent
Method: (§2) The drug combination was also tested in nude mice bearing the human lung cancer xenografts MV522 and SK-MES. Fragments of human tumor carcinomas harvested from subcutaneously growing tumors in nude mice hosts were implanted subcutaneously. When tumors were approximately 60-75 mg in size (10-14 days after implantation), mice were pair matched into treatment and control groups. Epothilone D was given intraperito-neally twice a day for 7 days (6 to 14 mg/kg/day), carboplatin intraperitoneally every daily for 5 days (10 to 40 mg/kg/day), various combinations of epothilone D (first) and carboplatin (second), or vehicle control.

[3] = tested on: human lung cancer xenograft MV522; experiment: Human lung cancer xenograft in nude mice; assay type: in vivo; details: ip, epothilone D twice a day for 7 days (6 to 14 mg/kg/day), carboplatin daily for 5 days (10 to 40 mg/kg/day), dose dependent
Method: as §2

H23 = experiment: MTS cell viability assay, single agents; assay type: cell-based; details: Homo sapiens, NCI-H23, 72 h, read-out: IC50 (concentration of drug required to inhibit cell growth by 50%)
Method: as §1

H226 = experiment: MTS cell viability assay, single agents; assay type: cell-based; details: Homo sapiens, NCI-H226, 72 h, read-out: IC50 (concentration of drug required to inhibit cell growth by 50%)
Method: as §1

A549 = experiment: MTS cell viability assay, single agents; assay type: cell-based; details: Homo sapiens, A549, 72 h, read-out: IC50 (concentration of drug required to inhibit cell growth by 50%)
Method: as §1

H522 = experiment: MTS cell viability assay, single agents; assay type: cell-based; details: Homo sapiens, NCI-H522, 72 h, read-out: IC50 (concentration of drug required to inhibit cell growth by 50%)
Method: as §1

H460 = experiment: MTS cell viability assay, single agents; assay type: cell-based; details: Homo sapiens, NCI-H460, 72 h, read-out: IC50 (concentration of drug required to inhibit cell growth by 50%)
Method: as §1

H358 = experiment: MTS cell viability assay, single agents; assay type: cell-based; details: Homo sapiens, NCI-H358, 72 h, read-out: IC50 (concentration of drug required to inhibit cell growth by 50%)
Method: as §1

SMILES	cytotoxic effects against cultured NSCLC human cancer cell lines [1]	antiproliferative activity (measured as tumor size), single agent [2]	antiproliferative activity (measured as tumor size), single agent [3]	IC50 (H23)	IC50 (H226)	IC50 (A549)	IC50 (H522)	IC50 (H460)	IC50 (H358)
[NH2][Pt]1([NH2])[O]C(=O)C2(CCC2)C(=O)[O]1 [Carboplatin, carboplatin]	essentially inactive	antiproliferative activity	antiproliferative activity						
C/C1=C/CC(/C(C)=C/c2csc(C)n2)OC(=O)C[C@H](O)C(C)(C)C(=O)[C@H](C)[C@@H](O)[C@@H](C)CCC1 (stereo partly drawn) [Epothilone D, epothilone D]	potent cytotoxic effects	antiproliferative activity	antiproliferative activity	37 nM	50 nM	40 nM	40 nM	33 nM	40 nM
